Assay results taken from article PMC7738869, “A novel STAT3 inhibitor W2014-S regresses human non-small cell lung cancer xenografts and sensitizes EGFR-TKI acquired resistance” (Theranostics, 2021).
“And” between values parts separate entries of the source, which are not always exact repeats. Equal values may be shown once. Read-outs that look alike come from different tables or passages of the source.

Test: Pharmacokinetic study
Assay type: in vivo, SD rats
Method: W2014-S was given to SD rats (male, 230-260g, n = 6) by gavage and intravenous administration. The rats were fasted for 12 h before administration and remained fasting for 2 h. For oral gavage, W2014-S was dissolved in DMSO/0.5% HPMC (5/95, v/v/), and W2014-S was dissolved in DMSO/EtOH/PEG300/0.9% NaCl (5/5/40/50, v/v/v/v) for intravenous administration. The pharmacokinetic (PK) profiles were next evaluated in SD rats.

[1] = rat, i.v. 3 mg/kg, individual animals 4-6, 3 mg/kg
[2] = rat, p.o. 10 mg/kg, individual animals 1-3, 10 mg/kg

C[C@H](Oc1ccc(-c2nc3nc(C4=CCN(C(=O)OC(C)(C)C)CC4)ccc3[nH]2)cc1)c1ccccc1 [W2014-S]
concentration at 24 h (male, SD, rat, plasma, po, 10 mg/kg, p.o. 10 mg/kg, 24.0 h, read-out: Concentration in rat plasma, mean): 0 ng/mL | half-life (male, SD, rat, plasma, po, 10 mg/kg, p.o. 10 mg/kg, individual animals 1-3): 1.21 h | AUC(0-inf) (male, SD, rat, plasma, po, 10 mg/kg, rat, p.o. 10 mg/kg, individual animals 1-3, read-out: AUCINF_obs): 57.9 ng·h/mL | AUC(0-t) (male, SD, rat, plasma, po, 10 mg/kg, rat, p.o. 10 mg/kg, individual animals 1-3, read-out: AUClast): 54.6 ng·h/mL | half-life (male, Sprague-Dawley (SD), rat, plasma, iv, 3 mg/kg, SD rats, 3 mg/kg iv, mean): 13.6 h | AUC(0-inf) (male, Sprague-Dawley (SD), rat, plasma, iv, 3 mg/kg, SD rats, 3 mg/kg iv, mean, read-out: AUC0-inf): 244 ng·h/mL | AUC(0-t) (male, Sprague-Dawley (SD), rat, plasma, iv, 3 mg/kg, SD rats, 3 mg/kg iv, mean, read-out: AUC0-last): 222 ng·h/mL | clearance (male, Sprague-Dawley (SD), rat, plasma, iv, 3 mg/kg, SD rats, 3 mg/kg iv, mean, read-out: CL): 206 mL/min/kg | half-life (male, Sprague-Dawley (SD), rat, plasma, po, 10 mg/kg, SD rats, 10 mg/kg po, mean): 1.46 h | AUC(0-inf) (male, Sprague-Dawley (SD), rat, plasma, po, 10 mg/kg, SD rats, 10 mg/kg po, mean, read-out: AUC0-inf): 56.1 ng·h/mL | AUC(0-t) (male, Sprague-Dawley (SD), rat, plasma, po, 10 mg/kg, SD rats, 10 mg/kg po, mean, read-out: AUC0-last): 54.6 ng·h/mL | Cmax (male, Sprague-Dawley (SD), rat, plasma, po, 10 mg/kg, SD rats, 10 mg/kg po, mean, read-out: Cmax): 23.8 ng/mL | Tmax (male, Sprague-Dawley (SD), rat, plasma, po, 10 mg/kg, SD rats, 10 mg/kg po, mean, read-out: Tmax): 1.67 h | MRT inf (male, Sprague-Dawley (SD), rat, plasma, po, 10 mg/kg, rat, p.o. 10 mg/kg, mean, read-out: MRTINF_obs): 2.61 h | Vd (male, Sprague-Dawley (SD), rat, plasma, SD rats, 3 mg/kg iv, mean, read-out: Vss): 77.5 L/kg | bioavailability (male, Sprague-Dawley (SD), rat, plasma, SD rats, 10 mg/kg po vs 3 mg/kg iv): 7.39% | Concentration in rat plasma, individual animals 1-3 (p.o. 10 mg/kg, 0.25 h, 10 mg/kg): 29.9 ng/mL and 7.10 ng/mL and 21.9 ng/mL | Concentration in rat plasma, individual animals 1-3 (p.o. 10 mg/kg, 0.50 h, 10 mg/kg): 10.0 ng/mL and 27.4 ng/mL and 30.0 ng/mL | Concentration in rat plasma, individual animals 1-3 (p.o. 10 mg/kg, 1.00 h, 10 mg/kg): 8.00 ng/mL and 18.7 ng/mL and 21.7 ng/mL | Concentration in rat plasma, individual animals 1-3 (p.o. 10 mg/kg, 2.00 h, 10 mg/kg): 9.40 ng/mL and 6.60 ng/mL | Concentration in rat plasma, individual animals 1-3 (p.o. 10 mg/kg, 4.00 h, 10 mg/kg): 13.9 ng/mL and 4.80 ng/mL (2×) | Concentration in rat plasma, individual animals 1-3 (p.o. 10 mg/kg, 8.00 h, 10 mg/kg): 1.20 ng/mL and 0.400 ng/mL and 0.300 ng/mL | Concentration in rat plasma, individual animals 1-3 (p.o. 10 mg/kg, 24.0 h, BLQ: Below LLOQ (LLOQ = 0.3 ng/mL)): BLQ | AUCINF_obs [1]: 247 ng·h/mL and 255 ng·h/mL | AUClast [1]: 220 ng·h/mL and 236 ng·h/mL | CL_obs [1]: 202 mL/min/kg and 196 mL/min/kg | MRTINF_obs [1]: 7.48 h and 5.59 h | T1/2 [1]: 14.2 h and 11.2 h | Vss_obs [1]: 76.143 L/kg and 90.763 L/kg and 65.72 L/kg | Vss_obs (rat, i.v. 3 mg/kg, mean): 77.542 L/kg | AUCINF_obs [2]: 55.3 ng·h/mL and 55.0 ng·h/mL | AUClast [2]: 54.5 ng·h/mL | Cmax [2]: 13.9 ng/mL and 27.4 ng/mL and 30.0 ng/mL | MRTINF_obs [2]: 3.89 h and 2.08 h and 1.87 h | T1/2 [2]: 1.88 h and 1.29 h | Tmax [2]: 4.00 h and 0.50 h (2×)
